Results reported in ChEMBL document CHEMBL1201862, “PubChem BioAssay data set” (2004).
Active and inactive are the calls of the source.

Legend:
[1] = biological target: Melanin-concentrating hormone receptor 1 (Homo sapiens, UniProt Q99705); experiment: Fluorescence-based counterscreen for antagonists of the G-protein coupled receptor 7 (GPR7): cell-based high throughput dose response assay to identify antagonists of the melanin-concentrating hormone receptor 1 (MCHR1).; format: functional
HeLa = experiment: viability loss in HeLa cells – cell-based, 24 h, cherry-picked samples, cytotoxicity control, dose response (AID 504726); format: functional; settings: Homo sapiens;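 further: potency for cytotoxicity as loss of luminescence signal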
BJ [2] = experiment: BJ-TERT fibroblast viability loss – cell-based, RAS-independent, luminescence, dose response (AID 1933); format: functional; settings: Homo sapiens
[3] = biological target: Neurotensin receptor type 1 (Homo sapiens, UniProt P30989); format: functional;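 further: Image-based confirmatory dose-response assay measuring agonist activity at NTR1; NTR1-expressing U2OS osteosarcoma cells imaged for beta-arrestin GFP spot formation; agonist potency where compounds increase beta-arrestin recruitment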
[4] = DRD fibroblast viability loss – cell-based, non-viral oncogenic, luminescence, dose response (AID 1934); format: functional; settings: Homo sapiens
BJ [5] = experiment: BJ-TERT-LT-ST fibroblast viability loss – cell-based, RAS-independent, luminescence, dose response (AID 1935); format: functional; settings: Homo sapiens;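 further: BJ fibroblasts immortalized with TERT plus LT and ST oncogenes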
BJ [6] = experiment: cells; format: functional, cell-based; settings: Homo sapiens
[7] = microbe, parasite or virus in culture; format: functional; settings: Mycobacterium tuberculosis
[8] = biological target: Cyclin-dependent kinase 5/CDK5 activator 1 (Homo sapiens, UniProt Q00535); experiment: blockade of human CDK5 activity – biochemical, cherry-picked samples, set 2, dose response (AID 504545)
[9] = biological target: T1, Oxysterols receptor LXR-beta (Homo sapiens, UniProt P55055); format: functional, cell-based;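 further: agonist activity at LXR measured by a cell-based luminescence readout across a dose range, run as a counterscreen for daf-12 agonists; HEK293 cells with Gal4-LXR fusion and GAL4-driven luciferase reporter; potency for activation of Gal4-LXR reporter so compounds are agonists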
T1 sequence (P55055 whole entry): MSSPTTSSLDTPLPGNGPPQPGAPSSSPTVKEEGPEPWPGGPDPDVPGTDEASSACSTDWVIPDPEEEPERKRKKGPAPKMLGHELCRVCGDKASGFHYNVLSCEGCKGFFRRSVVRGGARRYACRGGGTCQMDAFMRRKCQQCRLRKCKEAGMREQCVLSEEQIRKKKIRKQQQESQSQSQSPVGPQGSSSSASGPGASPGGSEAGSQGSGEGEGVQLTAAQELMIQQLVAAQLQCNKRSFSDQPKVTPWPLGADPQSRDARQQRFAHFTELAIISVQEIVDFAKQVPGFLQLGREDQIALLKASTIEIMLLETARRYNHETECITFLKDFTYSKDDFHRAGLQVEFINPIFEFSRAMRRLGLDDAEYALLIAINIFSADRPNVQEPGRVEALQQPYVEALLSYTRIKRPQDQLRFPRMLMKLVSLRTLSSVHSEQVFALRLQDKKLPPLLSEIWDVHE

[10] = viability loss in HepG2 hepatoma cells – cell-based, ATP luminescence, cherry-pick, activator set 2, cytotoxicity control, dose response (AID 1053143); format: functional
[11] = biological target: Photoreceptor-specific nuclear receptor (Homo sapiens, UniProt Q9Y5X4); format: functional;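 further: potency for compounds that break the NR2E3 corepressor complex and count as activators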
[12] = biological target: Peroxisome proliferator-activated receptor gamma/Nuclear receptor corepressor 2 (Homo sapiens, UniProt P37231+Q9Y618); format: functional
[13] = biological target: Lysosomal acid glucosylceramidase (Homo sapiens, UniProt P04062); experiment: Dose response cell-based high throughput screening assay to identify enhancers of beta-glucosidase activity. [Related pubchem assays: 784 ]; format: functional
[14] = biological target: Voltage-dependent T-type calcium channel subunit alpha-1H (Homo sapiens, UniProt O95180); format: functional;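 further: channel activity triggered by adding a high calcium stimulation buffer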
[15] = biological target: G-protein coupled receptor 55 (Homo sapiens, UniProt Q9Y2T6); experiment: inhibition of LPI-stimulated GPR55 beta-arrestin translocation – imaging, U2OS, beta-arrestin-GFP, LPI agonist, primary screen (AID 2013); format: functional;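 further: antagonist potency measured as reduced agonist-driven arrestin aggregation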
Aspartyl aminopeptidase = biological target: T2, Aspartyl aminopeptidase (Plasmodium falciparum 3D7, UniProt Q8I2J3)
T2 sequence (Q8I2J3 whole entry): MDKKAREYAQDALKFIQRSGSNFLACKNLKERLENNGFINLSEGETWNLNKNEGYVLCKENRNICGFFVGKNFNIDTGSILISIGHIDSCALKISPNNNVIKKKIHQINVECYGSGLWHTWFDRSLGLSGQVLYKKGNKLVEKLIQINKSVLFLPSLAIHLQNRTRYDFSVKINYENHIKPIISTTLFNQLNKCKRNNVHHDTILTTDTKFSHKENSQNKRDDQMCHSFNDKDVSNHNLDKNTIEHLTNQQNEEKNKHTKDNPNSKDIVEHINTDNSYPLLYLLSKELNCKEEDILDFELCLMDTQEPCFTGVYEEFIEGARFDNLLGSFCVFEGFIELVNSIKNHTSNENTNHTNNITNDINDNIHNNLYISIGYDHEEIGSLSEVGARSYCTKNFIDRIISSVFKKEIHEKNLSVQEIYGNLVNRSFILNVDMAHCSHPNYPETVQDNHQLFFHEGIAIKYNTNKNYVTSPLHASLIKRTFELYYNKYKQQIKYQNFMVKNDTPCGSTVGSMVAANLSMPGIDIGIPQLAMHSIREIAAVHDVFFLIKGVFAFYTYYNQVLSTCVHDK

Procathepsin L = Procathepsin L (Homo sapiens, UniProt P07711)
[16] = Luminescence Cell-Based Dose Confirmation HTS to Identify Activators of 5'UTR Stem-Loop Driven Alpha-Synuclein mRNA Translation in H4 Neuroglioblastoma Cells. [Related pubchem assays: 1829 (Project Summary), 1814 (Primary HTS)]; format: functional
Beta-galactosidase = Beta-galactosidase (Escherichia coli, UniProt Q8VNN2); experiment: detection-enzyme interference by beta-gal modulators – biochemical, E. coli enzyme, set 3, artefact control for CCR6 antagonist project, dose response (AID 504712); format: functional
H4 = experiment: Luminescence Cell-Based Dose Response HTS to Identify Activators of 5'UTR Stem-Loop Driven Prion Protein mRNA Translation in H4 Neuroglioblastoma Cells. [Related pubchem assays: 1829 (Project Summary), 1814 (Primary HTS)]; format: functional; settings: Homo sapiens
[17] = Luminescence Cell-Based Dose Response HTS to Identify Activators of Luciferase Translation or Activity in H4 […] Cells. [Related pubchem assays: 1829 (Project Summary), 1814 (Primary HTS)]; format: functional
[18] = biological target: C-C chemokine receptor type 6 (Homo sapiens, UniProt P51684); experiment: antagonism of CCR6 beta-arrestin recruitment – cell-based, luminescent beta-arrestin readout, dose response (AID 504728); format: functional
[19] = biological target: NACHT, LRR and PYD domains-containing protein 3 (Homo sapiens, UniProt Q96P20); experiment: NALP3 inhibitors in yeast, dose response, luminescent (AID 488799); format: functional
Coagulation factor XII = biological target: T3, Coagulation factor XII (Homo sapiens, UniProt P00748); experiment: Factor XIIa Dose Response Confirmation from Single Well HTS. [Related pubchem assays (depositor defined):AID701]; format: functional
T3 sequence (P00748 whole entry): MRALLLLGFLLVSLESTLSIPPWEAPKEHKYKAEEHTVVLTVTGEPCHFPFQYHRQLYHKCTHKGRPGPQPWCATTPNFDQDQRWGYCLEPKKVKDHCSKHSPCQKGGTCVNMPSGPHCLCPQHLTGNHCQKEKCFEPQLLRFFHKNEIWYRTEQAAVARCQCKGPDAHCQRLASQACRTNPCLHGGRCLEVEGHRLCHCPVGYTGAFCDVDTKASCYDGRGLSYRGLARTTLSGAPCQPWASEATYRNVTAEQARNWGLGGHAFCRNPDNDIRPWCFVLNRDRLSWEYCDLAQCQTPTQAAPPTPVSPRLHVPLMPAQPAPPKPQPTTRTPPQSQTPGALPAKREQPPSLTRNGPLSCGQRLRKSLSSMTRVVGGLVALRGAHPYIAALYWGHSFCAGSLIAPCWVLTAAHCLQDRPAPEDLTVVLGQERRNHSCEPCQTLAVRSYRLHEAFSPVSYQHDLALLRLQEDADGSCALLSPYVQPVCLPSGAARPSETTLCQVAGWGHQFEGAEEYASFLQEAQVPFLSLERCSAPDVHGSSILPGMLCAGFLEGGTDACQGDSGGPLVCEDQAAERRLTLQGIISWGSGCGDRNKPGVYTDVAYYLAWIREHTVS

Staphylococcus aureus = experiment: Inhibitors of Bacterial Quorum Sensing Structure Activity Relationship (SAR) Analysis: Dose Response Assay. [Related pubchem assays: 700, 527 ]; format: functional, organism-based
Cytochrome P450 2C9 = Cytochrome P450 2C9 (Homo sapiens, UniProt P11712); settings: Potency
Cytochrome P450 3A4 = Cytochrome P450 3A4 (Homo sapiens, UniProt P08684); settings: Potency;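 further: confirmatory qHTS run detecting inhibitors and substrates of CYP3A4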
Trypanosoma cruzi = experiment: anti-trypanosomal activity in host cells – cell-based, plate reader, dry powder, set 3, dose response (AID 493197); format: functional
[20] = biological target: Glyceraldehyde-3-phosphate dehydrogenase (Homo sapiens, UniProt P04406)
[21] = biological target: Alkaline phosphatase, placental type (Homo sapiens, UniProt P05187); experiment: human placental alkaline phosphatase inhibition – biochemical, luminescence, confirmation (AID 1512); format: functional
[22] = biological target: T4, Microphthalmia-associated transcription factor (Homo sapiens, UniProt O75030); experiment: reducers of TRPM1 reporter luminescence, concentration series – cell-based, SK-MEL-5, cherry-picked, set 3, MITF inhibitor project, dose response (AID 493073); format: functional;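 further: SK-MEL-5 melanoma cells with luciferase driven by the MITF target TRPM1 promoter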
T4 sequence (O75030 whole entry): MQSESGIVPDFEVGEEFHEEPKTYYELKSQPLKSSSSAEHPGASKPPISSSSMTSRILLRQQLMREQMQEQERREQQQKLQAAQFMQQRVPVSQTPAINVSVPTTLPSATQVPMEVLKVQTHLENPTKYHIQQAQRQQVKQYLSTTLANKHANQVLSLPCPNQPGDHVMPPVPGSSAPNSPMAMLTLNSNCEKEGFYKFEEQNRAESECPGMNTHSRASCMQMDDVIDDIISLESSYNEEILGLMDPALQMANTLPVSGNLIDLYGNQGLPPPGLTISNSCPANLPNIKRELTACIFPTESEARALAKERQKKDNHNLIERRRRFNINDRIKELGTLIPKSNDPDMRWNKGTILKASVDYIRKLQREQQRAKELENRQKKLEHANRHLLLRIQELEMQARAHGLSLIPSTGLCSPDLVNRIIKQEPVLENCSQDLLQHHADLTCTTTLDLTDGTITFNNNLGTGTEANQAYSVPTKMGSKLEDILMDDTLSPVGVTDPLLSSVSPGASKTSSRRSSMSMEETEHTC

[23] = Cytotoxicity screening for potential Inhibitors of Bacterial Capsule Biogenesis. [Related pubchem assays (depositor defined):AID488970]; format: functional

Sequence of NACHT, LRR and PYD domains-containing protein 3 (Q96P20 whole entry, the tested form may be a part): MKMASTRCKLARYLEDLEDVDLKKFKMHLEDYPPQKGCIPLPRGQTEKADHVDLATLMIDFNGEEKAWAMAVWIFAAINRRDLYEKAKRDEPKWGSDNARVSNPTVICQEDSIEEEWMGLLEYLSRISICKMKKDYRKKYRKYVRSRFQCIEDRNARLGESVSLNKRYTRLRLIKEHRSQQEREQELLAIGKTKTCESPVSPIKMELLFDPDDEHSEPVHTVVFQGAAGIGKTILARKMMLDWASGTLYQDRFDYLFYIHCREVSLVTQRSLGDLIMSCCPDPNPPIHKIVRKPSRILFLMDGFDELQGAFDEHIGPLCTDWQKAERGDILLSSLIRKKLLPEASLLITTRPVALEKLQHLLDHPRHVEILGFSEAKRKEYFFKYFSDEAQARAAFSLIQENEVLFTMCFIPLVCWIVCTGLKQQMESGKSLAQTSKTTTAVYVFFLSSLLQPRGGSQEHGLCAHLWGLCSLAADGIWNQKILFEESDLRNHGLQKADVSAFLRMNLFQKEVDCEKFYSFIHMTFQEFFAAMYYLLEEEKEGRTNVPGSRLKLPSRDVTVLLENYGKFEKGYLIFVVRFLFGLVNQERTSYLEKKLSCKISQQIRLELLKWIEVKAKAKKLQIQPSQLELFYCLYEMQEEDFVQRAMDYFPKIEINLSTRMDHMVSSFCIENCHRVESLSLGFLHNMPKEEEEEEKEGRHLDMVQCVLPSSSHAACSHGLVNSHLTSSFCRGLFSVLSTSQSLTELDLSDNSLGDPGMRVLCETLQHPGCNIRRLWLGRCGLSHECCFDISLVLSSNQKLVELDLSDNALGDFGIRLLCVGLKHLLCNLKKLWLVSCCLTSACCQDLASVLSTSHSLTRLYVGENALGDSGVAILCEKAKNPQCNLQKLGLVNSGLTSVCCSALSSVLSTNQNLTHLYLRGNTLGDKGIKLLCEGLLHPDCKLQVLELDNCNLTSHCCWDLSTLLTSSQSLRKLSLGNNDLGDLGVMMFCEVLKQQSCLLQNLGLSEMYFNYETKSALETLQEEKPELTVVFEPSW
Sequence of Melanin-concentrating hormone receptor 1 (Q99705 whole entry): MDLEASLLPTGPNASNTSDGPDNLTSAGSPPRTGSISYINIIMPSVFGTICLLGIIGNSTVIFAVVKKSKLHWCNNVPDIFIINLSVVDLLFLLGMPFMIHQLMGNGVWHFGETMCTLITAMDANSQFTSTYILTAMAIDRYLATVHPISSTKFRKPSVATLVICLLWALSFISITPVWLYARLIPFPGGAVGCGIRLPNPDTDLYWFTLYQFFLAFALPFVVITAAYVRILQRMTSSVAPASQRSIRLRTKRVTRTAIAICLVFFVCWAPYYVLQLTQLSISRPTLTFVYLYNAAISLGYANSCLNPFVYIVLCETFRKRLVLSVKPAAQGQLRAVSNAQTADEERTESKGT
Sequence of Cytochrome P450 2C9 (P11712 whole entry): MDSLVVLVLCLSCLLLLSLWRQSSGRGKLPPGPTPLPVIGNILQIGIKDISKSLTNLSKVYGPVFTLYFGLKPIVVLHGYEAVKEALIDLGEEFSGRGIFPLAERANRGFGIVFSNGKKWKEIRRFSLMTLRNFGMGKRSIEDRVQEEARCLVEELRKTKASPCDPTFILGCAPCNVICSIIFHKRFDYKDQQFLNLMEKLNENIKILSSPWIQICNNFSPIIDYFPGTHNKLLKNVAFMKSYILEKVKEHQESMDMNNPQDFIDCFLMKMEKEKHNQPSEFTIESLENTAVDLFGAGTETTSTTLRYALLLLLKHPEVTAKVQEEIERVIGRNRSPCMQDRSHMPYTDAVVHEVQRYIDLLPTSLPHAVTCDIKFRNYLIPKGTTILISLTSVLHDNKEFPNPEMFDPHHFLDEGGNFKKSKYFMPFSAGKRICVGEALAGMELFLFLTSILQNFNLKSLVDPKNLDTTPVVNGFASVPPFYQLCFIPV
Sequence of Beta-galactosidase (Q8VNN2 whole entry): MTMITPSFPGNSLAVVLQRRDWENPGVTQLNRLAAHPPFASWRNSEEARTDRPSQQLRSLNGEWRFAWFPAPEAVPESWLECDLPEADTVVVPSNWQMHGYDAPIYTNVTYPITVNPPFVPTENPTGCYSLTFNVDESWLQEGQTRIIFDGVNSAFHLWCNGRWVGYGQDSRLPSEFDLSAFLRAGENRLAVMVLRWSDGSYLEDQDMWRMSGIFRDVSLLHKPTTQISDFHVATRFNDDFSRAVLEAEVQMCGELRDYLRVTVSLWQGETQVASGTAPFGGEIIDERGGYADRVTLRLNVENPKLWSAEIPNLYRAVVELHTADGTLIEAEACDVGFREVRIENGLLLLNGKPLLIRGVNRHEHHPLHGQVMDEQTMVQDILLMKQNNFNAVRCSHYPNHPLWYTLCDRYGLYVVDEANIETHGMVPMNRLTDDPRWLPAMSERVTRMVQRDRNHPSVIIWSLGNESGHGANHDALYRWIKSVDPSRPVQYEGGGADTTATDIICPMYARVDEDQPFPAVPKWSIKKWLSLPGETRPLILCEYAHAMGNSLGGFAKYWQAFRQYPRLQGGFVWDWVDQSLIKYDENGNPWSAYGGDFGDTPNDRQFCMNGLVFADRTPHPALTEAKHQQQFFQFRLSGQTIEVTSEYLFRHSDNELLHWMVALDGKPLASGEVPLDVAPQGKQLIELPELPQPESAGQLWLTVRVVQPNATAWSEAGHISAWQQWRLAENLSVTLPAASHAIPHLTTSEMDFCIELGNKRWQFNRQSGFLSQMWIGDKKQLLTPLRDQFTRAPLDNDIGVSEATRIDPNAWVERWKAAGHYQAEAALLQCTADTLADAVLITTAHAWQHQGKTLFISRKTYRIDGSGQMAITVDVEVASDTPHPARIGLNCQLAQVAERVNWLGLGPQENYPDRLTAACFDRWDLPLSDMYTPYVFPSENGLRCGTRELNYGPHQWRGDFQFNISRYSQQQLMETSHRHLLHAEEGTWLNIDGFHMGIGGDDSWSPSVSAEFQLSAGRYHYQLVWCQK
Sequence of Procathepsin L (P07711 whole entry): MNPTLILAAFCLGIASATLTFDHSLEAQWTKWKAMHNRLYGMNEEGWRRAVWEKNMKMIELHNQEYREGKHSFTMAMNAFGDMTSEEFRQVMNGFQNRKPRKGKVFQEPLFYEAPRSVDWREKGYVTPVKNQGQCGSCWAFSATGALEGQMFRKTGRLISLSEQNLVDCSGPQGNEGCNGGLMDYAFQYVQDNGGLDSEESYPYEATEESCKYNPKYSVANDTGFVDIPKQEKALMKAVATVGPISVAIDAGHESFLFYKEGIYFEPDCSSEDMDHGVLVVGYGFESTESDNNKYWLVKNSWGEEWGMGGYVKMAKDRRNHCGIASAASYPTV
Sequence of Cytochrome P450 3A4 (P08684 whole entry): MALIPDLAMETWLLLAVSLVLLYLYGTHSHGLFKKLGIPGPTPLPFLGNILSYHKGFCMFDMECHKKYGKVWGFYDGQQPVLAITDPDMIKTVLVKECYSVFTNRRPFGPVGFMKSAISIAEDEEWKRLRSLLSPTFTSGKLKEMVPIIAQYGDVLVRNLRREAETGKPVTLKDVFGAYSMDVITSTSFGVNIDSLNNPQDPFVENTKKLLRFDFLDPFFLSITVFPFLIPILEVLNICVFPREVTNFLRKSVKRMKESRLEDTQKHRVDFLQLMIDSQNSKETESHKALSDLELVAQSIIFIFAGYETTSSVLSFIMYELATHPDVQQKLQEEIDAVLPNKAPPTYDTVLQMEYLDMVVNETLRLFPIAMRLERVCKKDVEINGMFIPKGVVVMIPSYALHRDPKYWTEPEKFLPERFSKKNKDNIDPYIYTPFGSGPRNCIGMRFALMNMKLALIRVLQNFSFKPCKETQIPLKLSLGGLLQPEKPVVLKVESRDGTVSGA
Sequence of Glyceraldehyde-3-phosphate dehydrogenase (P04406 whole entry): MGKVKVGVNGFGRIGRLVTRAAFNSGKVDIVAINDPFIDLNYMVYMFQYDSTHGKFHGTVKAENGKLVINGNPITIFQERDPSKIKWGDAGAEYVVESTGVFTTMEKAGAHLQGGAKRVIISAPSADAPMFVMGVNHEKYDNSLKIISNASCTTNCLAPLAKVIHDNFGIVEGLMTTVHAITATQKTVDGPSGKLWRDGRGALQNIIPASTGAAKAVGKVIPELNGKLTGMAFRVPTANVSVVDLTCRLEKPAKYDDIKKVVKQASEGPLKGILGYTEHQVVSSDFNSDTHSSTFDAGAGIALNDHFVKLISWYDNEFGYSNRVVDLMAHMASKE
Sequence of C-C chemokine receptor type 6 (P51684 whole entry, the tested form may be a part): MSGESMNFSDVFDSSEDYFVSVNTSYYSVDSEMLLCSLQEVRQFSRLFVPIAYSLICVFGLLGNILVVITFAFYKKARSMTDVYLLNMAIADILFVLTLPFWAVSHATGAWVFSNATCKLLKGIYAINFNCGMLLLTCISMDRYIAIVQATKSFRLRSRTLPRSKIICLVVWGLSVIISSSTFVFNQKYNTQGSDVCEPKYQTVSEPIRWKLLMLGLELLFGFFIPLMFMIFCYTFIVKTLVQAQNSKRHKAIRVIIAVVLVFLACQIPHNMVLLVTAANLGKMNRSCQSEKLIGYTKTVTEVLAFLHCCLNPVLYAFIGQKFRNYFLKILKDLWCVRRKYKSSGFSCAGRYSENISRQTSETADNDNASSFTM
Sequence of Lysosomal acid glucosylceramidase (P04062 whole entry): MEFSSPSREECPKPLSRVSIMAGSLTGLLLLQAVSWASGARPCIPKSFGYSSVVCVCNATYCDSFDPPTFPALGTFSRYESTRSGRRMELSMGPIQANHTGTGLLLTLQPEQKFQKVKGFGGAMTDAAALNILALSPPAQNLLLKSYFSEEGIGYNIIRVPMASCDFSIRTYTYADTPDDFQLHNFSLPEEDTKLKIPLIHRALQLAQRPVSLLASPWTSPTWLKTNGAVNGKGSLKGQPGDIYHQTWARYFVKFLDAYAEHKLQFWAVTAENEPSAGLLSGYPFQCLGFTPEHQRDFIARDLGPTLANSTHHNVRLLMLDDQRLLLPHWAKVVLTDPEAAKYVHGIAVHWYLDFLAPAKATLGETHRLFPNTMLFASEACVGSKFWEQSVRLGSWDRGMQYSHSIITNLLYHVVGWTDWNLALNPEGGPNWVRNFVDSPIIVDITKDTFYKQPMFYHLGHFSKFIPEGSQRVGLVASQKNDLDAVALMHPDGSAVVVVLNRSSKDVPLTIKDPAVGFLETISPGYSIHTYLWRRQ

SMILES: COc1ccnc(Oc2ccc(F)cc2)c1C(=O)N=CNOCc1ccc(F)cc1
- IC50 [1]: 30.3 µM (not active)

SMILES: Cc1cccc(Nc2nc(N)c([N+](=O)[O-])c(NCc3ccccc3)n2)c1
- AC50 (HeLa): 25 µM (active)

SMILES: COc1cc(C(=O)/C=C/c2cccnc2)c([N+](=O)[O-])cc1OC
- EC50 (BJ [2]): 13 µM (active)
- EC50 [3]: 32.1 µM (inactive)
- EC50 [4]: 9.22 µM (active)
- EC50 (BJ [5]): > 75 µM (not active)
- EC50 (BJ [6]): 18.6 µM (active)
- CC50 [7]: 15.6 µM (active)

SMILES: COc1ccc(Nc2nccc(-c3cccc(N)c3)n2)cc1
- AC50 [8]: 80.7 µM (active)
- EC50 [9]: > 67.5 µM (inactive)
- AC50 [10]: 18.8 µM (active)

SMILES: O=C(O)C1CCN(c2nc(-c3ccccc3)c3cc(Br)ccc3n2)CC1
- IC50 [11]: > 39.8 µM (not active)
- IC50 [12]: 2.33 µM (active)

SMILES: O=C(NCCCN1CCCC1=O)c1ccc2c(=O)n(Cc3ccco3)c(=S)[nH]c2c1
- EC50 [13]: > 50 µM (not active)

SMILES: COc1ccc(-c2noc(CCC(=O)N(C)c3cccc(C)c3)n2)cc1
- EC50 [14]: 6.52 µM (active)

SMILES: COC(=O)C1=C(C)N(Cc2ccccc2)C(NCc2cc(OC)c(OC)c(OC)c2)=N[C@H]1c1ccccc1
- IC50 [15]: 3.93 µM (active)

SMILES: COc1cc([N+](=O)[O-])ccc1N=C(S)Nn1cnnc1
- IC50 (Aspartyl aminopeptidase): 0.854 µM (active)
- IC50 (Procathepsin L): > 59.6 µM (not active)

SMILES: O=C(CSc1nccn1-c1ncc(C(F)(F)F)cc1Cl)c1ccc(Br)cc1
- EC50 [16]: 0.247 µM (active)
- IC50 (Beta-galactosidase): > 66.6 µM (inactive)
- EC50 (H4): 7.85 µM (active)
- EC50 [17]: 0.233 µM (active)
- IC50 [18]: > 66.6 µM (inactive)

SMILES: Cn1c(=O)c(C(=O)Nc2ncccn2)c(O)c2ccccc21
- IC50 [19]: 13.6 µM (active)

SMILES: N#CC1=C2SCC(O)(c3ccccc3)N2C(=O)CC1c1ccccc1F (stereo not drawn)
- IC50 (Coagulation factor XII): 2.02 µM (active)

SMILES: O=C(O)c1cccnc1Nc1cccc(SC(F)(F)F)c1
- IC50 (Staphylococcus aureus): 0.964 µM (active)

SMILES: CCC12C=C(/C=C/c3ccccc3)C(CC)(C1)C(c1ccccc1)CC2=O (stereo not drawn)
- AC50 (Cytochrome P450 2C9): 1.58 µM (inconclusive)
- AC50 (Cytochrome P450 3A4): 6.31 µM (inconclusive)

SMILES: CCCNC(=O)C1(C)CCCN(Cc2cccc(Oc3ccccc3)c2)C1 (stereo not drawn)
- AC50 (Trypanosoma cruzi): 9.13 µM (active)

SMILES: CC(C)NC(=O)c1cc(-c2ccc(Cl)cc2Cl)n[nH]1
- IC50 [20]: > 100 µM (not active)
- IC50 [21]: > 100 µM (inactive)

SMILES: N=c1n(CCN2CCCC2)c2ccccc2n1CC(O)c1ccc(Cl)c(Cl)c1 (stereo not drawn)
- AC50 [22]: 11.8 µM (active)
- CC50 [23]: 7.43 µM (active)
